Data reported in patent US10988478B1, “Pyrazolo[1,5a]pyrimidine derivatives as IRAK4 modulators” (Genentech, Inc., priority 2015, dated 2021).
pKi: −log10 of the molar value.

What follows are molecules tested against human IRAK4 (Homo sapiens (Human), UniProt Q9NWZ3) (assay: IRAK4 kinase inhibition, Transcreener fluorescence polarization ADP assay). Conditions: recombinant full-length His6-IRAK4; 125 uM ATP; 90 min; Ki computed using ATP Km 642 uM.
Type: biochemical
Experimental: Compounds were assayed for inhibition of human IRAK4 and IRAK1 catalytic activity using recombinant enzyme produced from insect cells. Full-length IRAK4 protein, carrying an N-terminal His6-Tag, was obtained from Life Technologies (Carlsbad, Calif., USA). The IRAK1 construct was produced internally and was comprised of IRAK1 residues Arg194 to Ser712, preceded by an NH2-terminal His6 tag and the coding sequence for glutathione-S-transferase.

Chain of human IRAK4 (Q9NWZ3 whole entry): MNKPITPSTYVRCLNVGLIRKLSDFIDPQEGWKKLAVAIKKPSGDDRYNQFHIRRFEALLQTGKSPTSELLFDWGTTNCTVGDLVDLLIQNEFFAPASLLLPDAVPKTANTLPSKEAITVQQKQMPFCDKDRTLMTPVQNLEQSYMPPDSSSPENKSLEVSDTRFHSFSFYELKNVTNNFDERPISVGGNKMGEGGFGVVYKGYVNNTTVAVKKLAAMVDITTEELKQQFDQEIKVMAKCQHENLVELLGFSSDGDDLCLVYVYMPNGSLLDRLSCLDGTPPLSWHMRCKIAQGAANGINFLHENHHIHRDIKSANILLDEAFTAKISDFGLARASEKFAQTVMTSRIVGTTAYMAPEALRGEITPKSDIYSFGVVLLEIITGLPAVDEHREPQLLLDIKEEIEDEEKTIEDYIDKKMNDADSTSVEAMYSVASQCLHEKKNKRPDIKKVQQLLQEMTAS

pKi | SMILES
7.52 | CC1(C)Cc2cc(NC(=O)c3cnn4cccnc34)c(N3CCOCC3)cc2C1=O [Example 499, N-(2,2-Dimethyl-6-morpholino-1-oxo-2,3-dihydro-1H-inden-5-yl)pyrazolo[1,5-a]pyrimidine-3-carboxamide]
8.24 | CCN1CCC2(CC1)Cc1cc(NC(=O)c3cnn4cccnc34)c(N3CCOCC3)cc1O2 [Example 502, N-(1′-ethyl-6-morpholino-3H-spiro[benzofuran-2,4′-piperidin]-5-yl)pyrazolo[1,5-a]pyrimidine-3-carboxamide]
8.40 | CC1(C)Cc2cc(NC(=O)c3cnn4cccnc34)c(N3CCN(Cc4ncc[nH]4)CC3)cc2O1 [Example 503, N-(6-(4-((1H-imidazol-2-yl)methyl)piperazin-1-yl)-2,2-dimethyl-2,3-dihydrobenzofuran-5-yl)pyrazolo[1,5-a]pyrimidine-3-carboxamide]
8.51 | CC1(C)Cc2cc(NC(=O)c3cnn4cccnc34)c(N3CCN(Cc4cnoc4)CC3)cc2O1 [Example 504, N-(6-(4-(isoxazol-4-ylmethyl)piperazin-1-yl)-2,2-dimethyl-2,3-dihydrobenzofuran-5-yl)pyrazolo[1,5-a]pyrimidine-3-carboxamide]
8.28 | CC1(C)Cc2cc(NC(=O)c3cnn4cccnc34)c(N3CCN(Cc4ccn[nH]4)CC3)cc2O1 [Example 505, N-(6-(4-((1H-pyrazol-5-yl)methyl)piperazin-1-yl)-2,2-dimethyl-2,3-dihydrobenzofuran-5-yl)pyrazolo[1,5-a]pyrimidine-3-carboxamide]

The next lines start with the molecule.

SMILES | pKi
CNC(=O)c1cnc2c(C(=O)Nc3cc4c(cc3N3CCOCC3)C(=O)N(C[C@@H](F)C(C)(C)O)C4)cnn2c1 [Example 492, N3-[2-[(2R)-2-Fluoro-3-hydroxy-3-methyl-butyl]-6-morpholino-1-oxo-isoindolin-5-yl]-N^6-methyl-pyrazolo[1,5-a]pyrimidine-3,6-dicarboxamide] | 8.04
CC1(C)Cc2cc(NC(=O)c3cnn4cc(OC(F)F)cnc34)c(N3CCOCC3)cc2O1 [Example 493, 6-(difluoromethoxy)-N-(2,2-dimethyl-6-morpholino-2,3-dihydrobenzofuran-5-yl)pyrazolo[1,5-a]pyrimidine-3-carboxamide] | 7.37
CC(C)(O)[C@H](F)CN1Cc2cc(NC(=O)c3cnn4cccnc34)c(OCC3CC3)cc2C1=O [Example 496, N-[6-(Cyclopropylmethoxy)-2-[(2R)-2-fluoro-3-hydroxy-3-methyl-butyl]-1-oxo-isoindolin-5-yl]pyrazolo[1,5-a]pyrimidine-3-carboxamide] | 9.08
C[C@H]1CN(C)CC[C@]12Cc1cc(NC(=O)c3cnn4cccnc34)c(N3CCOCC3)cc1O2 [Example 497, N-((2R,3'S)-1′,3′-dimethyl-6-morpholino-3H-spiro[benzofuran-2,4′-piperidin]-5-yl)pyrazolo[1,5-a]pyrimidine-3-carboxamide] | 8.59
C[C@@H]1CN(C)CC[C@]12Cc1cc(NC(=O)c3cnn4cccnc34)c(N3CCOCC3)cc1O2 [Example 498, N-((2R,3′R)-1′,3′-dimethyl-6-morpholino-3H-spiro[benzofuran-2,4′-piperidin]-5-yl)pyrazolo[1,5-a]pyrimidine-3-carboxamide] | 7.54
CC(C)(O)[C@H](F)CN1Cc2cc(NC(=O)c3cnn4cccnc34)ccc2C1=O [Example 500, N-[2-[(2R)-2-Fluoro-3-hydroxy-3-methyl-butyl]-1-oxo-isoindolin-5-yl]pyrazolo[1,5-a]pyrimidine-3-carboxamide] | 7.08
O=C(Nc1cc2c(cc1N1CCOCC1)OC1(CCN(CCF)CC1)C2)c1cnn2cccnc12 [Example 501, N-(1′-(2-fluoroethyl)-6-morpholino-3H-spiro[benzofuran-2,4′-piperidin]-5-yl)pyrazolo[1,5-a]pyrimidine-3-carboxamide] | 8.16
